Measured values: the NIST ThermoML archive (doi:10.1016/j.fluid.2015.03.015)

Assay: refractive index (other wavelength) (dimensionless)
Settings: 85 kPa, Liquid, Wavelength=632.8 nm, Minimum Deviation

CCCCCCCC[n+]1ccn(C)c1.F[B-](F)(F)F [1-methyl-3-octylimidazolium tetrafluoroborate]
Settings | refractive index
288.81 K | 1.4343
290.85 K | 1.4338
292.91 K | 1.4332
294.95 K | 1.4327
297 K | 1.4321
297.74 K | 1.4319
299.06 K | 1.4316
299.31 K | 1.4315
300.78 K | 1.4312
301.11 K | 1.431
302.3 K | 1.4307
303.2 K | 1.4304
303.84 K | 1.4303
305.32 K | 1.4299
306.84 K | 1.4295
308.35 K | 1.429

CCCCCCCO [heptan-1-ol]
Settings | refractive index
297.43 K | 1.4217
298.87 K | 1.4211
300.46 K | 1.4205
301.93 K | 1.4199
303.44 K | 1.4193
305.08 K | 1.4187
306.72 K | 1.418
308.35 K | 1.4174

CCCC(C)O (stereo not given) [pentan-2-ol]
Settings | refractive index
289.22 K | 1.407
292.33 K | 1.4058
295.95 K | 1.4042
299.54 K | 1.4027
302.62 K | 1.4013
306.2 K | 1.3997
